{"source": "patent US5322841A", "about": "“Method for producing neutral glucans for pharmaceutical applications” (Alpha-Beta Technology, Inc., priority 1992, dated 1994)", "key": {"[1]": {"tested_on": "β-glucan receptor of monocytes", "assay": "Inhibition of Zymosan ingestion by human monocytes (affinity for the monocyte β-glucan receptor)", "format": "cell-based", "method": "Human monocytes were incubated with various concentrations of the PGG for 15 minutes, washed to remove unbound glucan and then incubated with Zymosan for 30 minutes. After fixing and staining the monolayers, the percentage of monocytes ingesting Zymosan was determined. The affinity of glucan preparations for the β-glucan receptor by was measured according to their ability to competitively occupy the receptor thus inhibiting the uptake of Zymosan by monocytes. Samples were compared by taking the concentration of glucan required to obtain 50% inhibition of Zymosan ingestion.\nTwo molecular weight fractions of PGG from Saccharomyces cerevisiae R4 were prepared according to the procedure outlined in Example 2. The PGG preparations were then assayed for their affinity to the monocyte β-glucan receptor by measuring inhibition of Zymosan phagocytosis as described in Example 3."}, "[2]": {"target": "β-glucan receptor of monocytes", "settings": "Table 1; value from Czop and Austen, J. Immunology 135(5):3388-3393 (1985); cited from earlier work"}, "[3]": {"tested_on": "peripheral white blood cell (WBC) counts", "assay": "Peripheral total and differential white blood cell counts in mice after IV or SC PGG", "format": "in vivo, male CD-1 mice", "method": "The effect of in vivo administration of modified glucans on peripheral white blood cell (WBC) counts was characterized in mice. PGG preparations of the modified glucan from strain R4 were prepared according to the procedure outlined in Example 2 and administered intravenously (IV) and subcutaneously (SC) to male CD-1 mice. Total and differential cell counts were monitored at regular time intervals."}, "[4]": {"tested_on": "E. coli strain TVDL-rat", "assay": "E. coli sepsis model in mice", "format": "in vivo", "method": "A sepsis model was developed in mice to characterize the efficacy of modified PGG glucans in protecting an immunologically intact host against serious infections, such as those which commonly occur following abdominal surgery. PGG derived from WGP-R4 was prepared according to the procedure outlined in Example 2.\nThe model used intraperitoneal challenge of mice with an 0.1 ml suspension of E. coli strain TVDL-rat (approximately 10^8 CFU/ml) 24 hours following IV administration of PGG by single bolus injection using transthoracic cardiac puncture. Mice were returned to their cages and maintained on food and water ad libitum. A control group of 10 mice were injected with 0.1 ml sterile saline at the time of the PGG administration. Mortality rates for the treatment groups and saline control group were recorded at 48 hours after challenge."}, "[5]": {"settings": "most pronounced increase, FIGS. 2 and 3, mice"}, "[6]": {"settings": "multiple-dose SC regimen, 5 mg/mouse/day×4 days, after initiation of therapy"}}}
{"substance": "Barley β-Glucan [reference compound]", "values": [{"measurement": "Relative Avidity", "setting": "[1]; Table 1, relative to Barley β-Glucan = 1", "result": 1}, {"measurement": "Concentration for 50% Inhibition", "setting": "[2]", "result": 65, "unit": "µg/mL"}]}
{"substance": "poly-(1-6)-β-D-glucopyranosyl-(1-3)-β-D-glucopyranose [PGG]", "values": [{"measurement": "concentration of glucan required to obtain 50% inhibition of Zymosan ingestion", "setting": "[1]; human monocytes incubated with glucan 15 minutes, then Zymosan 30 minutes, FIG. 1", "result": 0.1, "unit": "µg/mL"}, {"measurement": "increase in activity (affinity for monocyte β-glucan receptor) versus YE glucan", "setting": "[1]; ratio of concentrations for 50% inhibition of Zymosan ingestion", "result": 35, "unit": "fold"}, {"measurement": "time to amplification of total WBC counts", "setting": "[3]; FIGS. 2 and 3, mice", "result": "< 6", "unit": "h"}, {"measurement": "increase in granulocyte count", "setting": "[3]; [5]", "result": 6, "unit": "×"}, {"measurement": "increase in monocyte count", "setting": "[3]; [5]", "result": 12, "unit": "×"}, {"measurement": "increase in average monocyte count, zero hours to 144 hours", "setting": "[3]; multiple-dose SC regimen", "result": 24, "unit": "fold"}, {"measurement": "time at which increase in total WBC begins", "setting": "[3]; [6]", "result": 48, "unit": "h"}, {"measurement": "time at which increase in total WBC peaks", "setting": "[3]; [6]", "result": 144, "unit": "h"}, {"measurement": "average monocyte count", "setting": "[3]; multiple-dose SC regimen, at 144 hours (320/mm^3 at zero hours)", "result": "approximately 8,000 /mm^3"}, {"measurement": "total WBC count", "setting": "[3]; single-dose IV administration, 5 mg/mouse", "result": "profound increase"}, {"measurement": "lowest dose significantly reducing mortality", "setting": "[4]; single IV bolus 24 hours before E. coli challenge, equals 0.5 mg/kg body weight", "result": 0.01, "unit": "mg/mouse"}, {"measurement": "mortality at 48 hours after challenge compared to saline control group", "setting": "[4]; single IV bolus 24 hours before intraperitoneal E. coli challenge, p<0.05, doses as low as 0.01 mg/mouse (0.5 mg/kg body weight)", "result": "significantly reduced mortality"}]}
